Settings: Liquid, Closed cell (Static) method

COCOC [dimethoxymethane]
Settings | vapor or sublimation pressure [kPa]
283.13 K | 27.73
285.13 K | 30.39
288.11 K | 34.73
293.07 K | 43.08
295.07 K | 46.83
298.07 K | 52.94
300.07 K | 57.14
303.05 K | 64.26
305.05 K | 69.42
308.05 K | 77.74
310.07 K | 83.8
313.16 K | 93.85
318.13 K | 111.95
323.17 K | 132.98
325.18 K | 142.06
328.17 K | 156.44
330.17 K | 166.67
333.17 K | 182.96
335.17 K | 194.47
338.16 K | 212.79
340.16 K | 225.73
343.16 K | 246.24
345.16 K | 260.68
348.16 K | 283.65
353.16 K | 325.16
358.16 K | 371.53
363.16 K | 421.82
368.16 K | 477.61
373.15 K | 538.51
378.16 K | 605.33
383.13 K | 677.68
388.15 K | 757.05
393.16 K | 842.82
398.15 K | 935.48

FC(F)CC(F)(F)F [1,1,1,3,3-pentafluoropropane]
Settings | vapor or sublimation pressure [kPa]
253.12 K | 19.34
258.16 K | 25.37
263.13 K | 32.79
268.12 K | 41.88
273.12 K | 52.91
278.12 K | 66.17
283.15 K | 82.07
285.14 K | 89.11
288.12 K | 100.56
293.09 K | 122.2
295.08 K | 131.93
298.06 K | 147.46
303.06 K | 177.01
305.05 K | 190.2
308.05 K | 210.95
310.09 K | 225.91
313.1 K | 249.94
315.08 K | 266.8
318.12 K | 294.26
320.17 K | 312.44
323.16 K | 343.03
325.16 K | 364.63
328.16 K | 398.98
330.16 K | 423.22
333.16 K | 461.65
338.16 K | 531.78
343.16 K | 609.29
345.16 K | 642.58
348.16 K | 695.02
353.16 K | 789.45
358.16 K | 893.28
363.16 K | 1007
368.13 K | 1130.3
373.13 K | 1265.7
378.16 K | 1413.6
383.15 K | 1573.3
388.14 K | 1745.4
393.14 K | 1932.2
398.12 K | 2133.2
403.07 K | 2348.2
